In US9539222B2, “Methods to inhibit intracellular growth of bacteria and to treat bacteria-mediated diseases” (priority 2012, dated 2017):
Read-outs that look alike come from different tables or passages of the source.

Assays:
Mycobacterium bovis BCG = type: cell-based; conditions: for difference from control (untreated infected cells) in mROS and BCG survival: THP1 cells or hMDM infected with BCG, 2 mM MET, 10 mM NAC or GSH, 24 hrs; for effect of ROS scavenger on Metformin-induced inhibition of growth of intracellular BCG: infected THP1 cells, 2 mM Metformin, 10 mM scavenger
[1] = system: reactive oxygen species (ROS); type: cell-based, human
[2] = system: H37Rv strain of Mycobacterium tuberculosis (MTB); type: cell-based
BCG = test: microbe, parasite or virus in culture; type: cell-based, Mycobacterium bovis BCG; conditions: for IC50: Mycobacterium tuberculosis variant bovis BCG, BCG, read-out: IC50 in MIC assay
mycobacterial phagosomes = type: cell-based, human
[3] = mice; cited from earlier work
[4] = system: Mycobacterium tuberculosis (MTB); test: Acute infection model of MTB in C57BL/6 mice, lung and spleen bacillary load (CFU); type: in vivo
[5] = 50 mg/Kg oral, 2-4 weeks of treatment

## CN(C)C(=N)NC(=N)N.Cl [Metformin, N,N-dimethyl imidodicarbonimidic diamide hydrochloride]
Mycobacterium bovis BCG; BCG-infected THP1 cells, 2 mM, no further reduction at later time points
  time in which inhibition of mycobacterial growth occurred: ≤ 24 h
Mycobacterium bovis BCG; BCG-infected THP1 cells, CFU at 24 hrs
  dose dependence of inhibition of intracellular mycobacteria: dose-dependent inhibition
[1]
  mROS, time- and dose-dependent change: increased significantly
  production of cytoplasmic ROS (cROS), CM-H2DCFDA: but not of cytoplasmic ROS (cROS)
  production of mitochondrial ROS (mROS), MitoSox: increased
[2]
  dose dependence of inhibition of intracellular MTB: dose-dependent inhibition

## C=C(C)[C@H]1Cc2c(ccc3c2O[C@@H]2COc4cc(OC)c(OC)cc4[C@@H]2C3=O)O1 [rotenone]
[1]
  production of cytoplasmic ROS (cROS), CM-H2DCFDA: upregulated
  production of mitochondrial ROS (mROS), MitoSox: upregulated

## CCCCc1oc2ccccc2c1C(=O)c1cc(I)c(OCCN(CC)CC)c(I)c1 [amiodarone, (2-{4-[(2-butyl-1-benzofuran-3-yl)carbonyl]-2,6-diiodophenoxy}ethyl)diethylamine]
BCG; in vitro BCG growth
  direct anti-mycobacterial activity in MIC assay: showed inhibition of mycobacterial growth

## CNC1C(OC2C(OC3C(O)C(O)C(NC(=N)N)C(O)C3NC(=N)N)OC(C)C2(O)C=O)OC(CO)C(O)C1O (stereo not shown) [streptomycin, 5-(2,4-diguanidino-3,5,6-trihydroxy-cyclohexoxy)-4-[4,5-dihydroxy-6-(hydroxymethyl)-3-methylamino-tetrahydropyran-2-yl]oxy-3-hydroxy-2-methyl-tetrahydrofuran-3-carbaldehyde]
BCG
  IC50: ~0.2 µM

## CC(=O)N[C@@H](CS)C(=O)O [NAC, N-acetylcysteine]
Mycobacterial phagosomes
  effect on Metformin-induced phagosomal acidification: prevented
Mycobacterium bovis BCG
  difference from control (untreated infected cells) in mROS and BCG survival: not significant
  effect of ROS scavenger on Metformin-induced inhibition of growth of intracellular BCG: abolishment
[2]; […], 2 mM MET, 10 mM NAC or GSH, 24 hrs
  difference from control in MTB survival (CFU): not significant

## CO[C@H]1C[C@@H]2CC[C@@H](C)[C@@](O)(O2)C(=O)C(=O)N2CCCC[C@H]2C(=O)O[C@H]([C@H](C)C[C@@H]2CC[C@@H](O)[C@H](OC)C2)CC(=O)[C@H](C)/C=C(\C)[C@@H](O)[C@@H](OC)C(=O)[C@H](C)C[C@H](C)/C=C/C=C/C=C/1C [rapamycin]
BCG
  IC50: ~13.8 µM

## Oc1ccc(/C=C/c2cc(O)cc(O)c2)cc1 [Resveratrol, 3,5,4′-trihydroxy-trans-stilbene]
[3]
  Oral LD50: ~2000 mg/kg
[4]; 25 mg/Kg RES alone, oral
  bacilli load in the lung compared to controls: did not reduce
[4]; [5]
  CFU in the lung compared to control: less CFU
  CFU in the spleen compared to control: less CFU

## N[C@@H](CCC(=O)N[C@@H](CS)C(=O)NCC(=O)O)C(=O)O [GSH, glutathione]
Mycobacterium bovis BCG
  difference from control (untreated infected cells) in mROS and BCG survival: not significant
  effect of ROS scavenger on Metformin-induced inhibition of growth of intracellular BCG: abolishment
[2]
  difference from control in MTB survival (CFU): not significant
